Read-outs that look alike come from different tables or passages of the source. Values belong to the compound of their own block, whether it stands above or below them.
Key:
rat tail vein = assay: Vein irritation in rats (rat tail vein model); settings: 100 mg/kg/day i.v., normal saline; for Normalized Rank: 5=normal
Experimental: Three studies were conducted: In Study I, four rats per group were given test compositions for three consecutive days at a concentration of 4 mg/ml (this and other concentrations expressed in terms of equivalent weight of temafloxacin base); in Study II, three rats per group were given test compositions for five consecutive days at 6 mg/ml; and in Study III, two groups of three rats each were given test compositions for five consecutive days at 4 mg/ml and 8 mg/ml, respectively. All rats were dosed at 100 mg/kg/day, with an infusion rate of 0.3 ml/minute.
Each rat was observed twice after each infusion: Once after 1-to-2 hours following injection, and again after 24 hours. Discoloration was ranked as follows:
4=Single red/pink spot of discoloration
3=Multiple red/pink spots of discoloration
2=Single purple spot of discoloration
1=Multiple purple spots of discoloration
0=Approx. one-fourth of distal tail discolored purple
Aggregate rankings were totaled for each group over the course of each study.

Solubility = assay type: physicochemical

Structure (SMILES): CC1CN(c2cc3c(cc2F)c(=O)c(C(=O)O)cn3-c2ccc(F)cc2F)CCN1 (stereo not drawn) [Control A]
Normalized Rank (rat tail vein; Study I, 4 mg/ml, three consecutive days, group total / number of animals / number of measurements, 0=worst): 2.29
Total Rank (rat tail vein; Study I, 4 rats, 4 mg/ml, three consecutive days, discoloration rank 5=normal to 0=one-fourth of distal tail purple): 55

solubility (Solubility; about pH 4 to about pH 10, read-out: solubility): < 500 µg/mL
solubility (Solubility; temafloxacin base in water, read-out: solubility in water): < 500 µg/mL
Structure (SMILES): CC1CN(c2cc3c(cc2F)c(=O)c(C(=O)O)cn3-c2ccc(F)cc2F)CCN1 (stereo not drawn) [temafloxacin, 1-(2,4-difluorophenyl)-6-fluoro-1,4-dihydro-7-(3-methyl-l-piperazinyl)-4-oxo-3-quinoline carboxylic acid]

Structure (SMILES): CC1CN(c2cc3c(cc2F)c(=O)c(C(=O)O)cn3-c2ccc(F)cc2F)CCN1 (stereo not drawn) [Control B]
Normalized Rank (rat tail vein; Study II, 6 mg/ml, five consecutive days, 0=worst): 3.23
Total Rank (rat tail vein; Study II, 3 rats, 6 mg/ml, five consecutive days, rank 5=normal, 0=worst): 97

Reference: patent publication US5334589A, “Quinolone carboxylic acid--metal ion--acid complexes” (Abbott Laboratories, priority 1992, dated 1994)
